Source: patent publication US20220281848A1, “PYRAZOLE-SUBSTITUTED PYRROLIDINONES AS HERBICIDES” (FMC Corporation, priority 2019, published 2022)

What was measured:
Assay type in all cases: in vivo
[1] = system: redroot pigweed (Amaranthus retroflexus, AMARE); test: Test A post-emergence, redroot pigweed; details: after 13 d
In short: (§1)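 Visual damage rating (0 no damage to 100 total damage) was made 13 d after spraying. The spray was 15.625, 62.5 or 250 g/ha in 50:50 acetone/water with 0.5% Tween 20, applied to 8-day-old glasshouse plants kept at 24/16° C, 14 h light and 65% humidity.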

wheat = test: Test D post-emergence, wheat seed treated with a herbicide safener; details: "Cereals" Postemergent
Method: (§2) A formulation containing 50 g/L of the test chemical was prepared by dissolving the active ingredient in a mixture of organic solvents and emulsifier, details of which are provided in the table. This formulation was then mixed with a small, variable amount of acetone to aid dissolution, before addition of a 0.2% v/v aqueous solution of an adjuvant, as the aqueous diluent, to form an aqueous spray solution which contains a predetermined concentration of the active ingredient.
(§3) This aqueous spray solution was then sprayed onto plants including maize and wheat that had been seed treated with a herbicide safener, after one day's cultivation (for pre-emergence) or after about 12 days' cultivation (for post-emergence). The plants were grown from seeds sown in standard soil, placed in a glasshouse under controlled conditions (at 24/18° C. or 20/16° C., day/night; 16 h light; 65% humidity). After spray application the plants were then grown in a glasshouse under the same conditions and watered twice daily. After 15 d for post-emergence and 20 DAA for pre-emergence the test was evaluated (100=total damage to plant; 0=no damage to plant).

corn (Zea mays, ZEAMX) = test: Test A pre-emergence, corn; details: after 13 d
In short: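 Damage rated 0–100 (100 = total) 13 d after spraying. Application was one day post-sowing at 15.625, 62.5 or 250 g/ha, formulated in 50:50 acetone/water plus 0.5% Tween 20. Pots held in glasshouse at 24/16 °C day/night, 14 h light, 65% humidity, watered twice daily.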

maize = test: Test D pre-emergence, maize seed treated with a herbicide safener; details: ZEAMX, preemergent, 20 DAA
Method: as §2, §3

[2] = system: velvetleaf (Abutilon theophrasti, ABUTH); test: Test A post-emergence, velvetleaf; details: after 13 d
In short: as §1

[3] = system: barnyardgrass (Echinochloa crus-galli, ECHCG); test: Test A post-emergence, barnyardgrass; details: after 13 d
In short: as §1

[4] = Rates 130, evaluated after 15 d
[5] = Rates 250, evaluated after 15 d
[6] = Rates 500, evaluated after 15 d

SMILES | damage to plant (100=total damage; 0=no damage) AMARE ([1]; Post-Emergence at 15.625 g/ha) | damage to plant (100=total damage; 0=no damage) AMARE ([1]; Post-Emergence at 62.5 g/ha) | damage to plant (100=total damage; 0=no damage) AMARE ([1]; Post-Emergence at 250 g/ha) | TRZAW damage rating (100=total damage to plant; 0=no damage to plant) (wheat; [4]) | TRZAW damage rating (100=total damage to plant; 0=no damage to plant) (wheat; [5]) | TRZAW damage rating (100=total damage to plant; 0=no damage to plant) (wheat; [6]) | damage to plant (100=total damage; 0=no damage) ZEAMX (corn (Zea mays, ZEAMX); Pre-Emergence at 15.625 g/ha) | damage to plant (100=total damage; 0=no damage) ZEAMX (corn (Zea mays, ZEAMX); Pre-Emergence at 62.5 g/ha) | damage to plant (100=total damage; 0=no damage) ZEAMX (corn (Zea mays, ZEAMX); Pre-Emergence at 250 g/ha) | damage to plant (100=total damage to plant; 0=no damage to plant), ZEAMX (maize; rate 15) | damage to plant (100=total damage to plant; 0=no damage to plant), ZEAMX (maize; rate 30) | damage to plant (100=total damage to plant; 0=no damage to plant), ZEAMX (maize; rate 60) | damage to plant (100=total damage to plant; 0=no damage to plant), ZEAMX (maize; rate 130) | damage to plant (100=total damage to plant; 0=no damage to plant), ZEAMX (maize; rate 250) | damage to plant (100=total damage to plant; 0=no damage to plant), ZEAMX (maize; rate 500) | damage to plant (100=total damage; 0=no damage) ABUTH ([2]; Post-Emergence at 15.625 g/ha) | damage to plant (100=total damage; 0=no damage) ABUTH ([2]; Post-Emergence at 62.5 g/ha) | damage to plant (100=total damage; 0=no damage) ABUTH ([2]; Post-Emergence at 250 g/ha) | damage to plant (100=total damage; 0=no damage) ECHCG ([3]; Post-Emergence at 62.5 g/ha) | damage to plant (100=total damage; 0=no damage) ECHCG ([3]; Post-Emergence at 250 g/ha) | further results
CN1CC(c2cc(C(F)(F)F)n(C)n2)C(C(=O)Nc2cccc(F)c2C(F)(F)F)C1=O (racemic) [Compound 19] | 0 | 0 | 30 | 0 | 0 | 20 | 0 | 0 | 20 | 0 | 0 | 0 | 0 | 0 | 0 | 0 | 0 | 0 | 70 | 80 | damage to plant (100=total damage; 0=no damage) ECHCG ([3]; Post-Emergence at 15.625 g/ha): 60
CN1CC(c2cc(C(F)(F)F)n(C)n2)C(C(=O)Nc2ccc(F)nc2F)C1=O (racemic) [Compound 22] | 0 | 0 | 0 | 0 | 0 | 10 | 0 | 20 | 40 | 0 | 0 | 0 | 0 | 0 | 0 | 0 | 0 | 0 | 70 | 80 | damage to plant (100=total damage; 0=no damage) ECHCG ([3]; Post-Emergence at 15.625 g/ha): 60
CN1CC(c2cc(C(F)(F)F)n(C)n2)C(C(=O)Nc2cccc(F)n2)C1=O (racemic) [Compound 24] | 0 | 0 | 0 | 0 | 0 | 0 | 0 | 30 | 80 | 0 | 0 | 0 | 0 | 0 | 0 | 0 | 0 | 0 | 80 | 80 | damage to plant (100=total damage; 0=no damage) ECHCG ([3]; Post-Emergence at 15.625 g/ha): 40
CN1CC(c2cc(C(F)(F)F)n(C)n2)C(C(=O)Nc2ccc(F)cc2C(C)(F)F)C1=O (racemic) [Compound 26] | – | 0 | 0 | 0 | 0 | 40 | – | 70 | 90 | 0 | 0 | 0 | 0 | 0 | 0 | – | 0 | 0 | 70 | 90 | –
CN1C[C@H](c2nn(C)c3c(F)cccc23)[C@@H](C(=O)Nc2cccc(F)c2F)C1=O [Compound 2] | 0 | 0 | 0 | 20 | 20 | 60 | 0 | 0 | 10 | 0 | 0 | 0 | 0 | 0 | 10 | 0 | 0 | 0 | 90 | 90 | damage to plant (100=total damage; 0=no damage) ECHCG ([3]; Post-Emergence at 15.625 g/ha): 0
CCn1nc([C@@H]2CN(C)C(=O)[C@H]2C(=O)Nc2cccc(F)c2F)c2cccc(F)c21 [Compound 14] | 0 | 0 | 0 | 10 | 70 | 80 | 20 | 10 | 70 | 0 | 0 | 0 | 10 | 20 | 50 | 0 | 0 | 0 | 80 | 80 | damage to plant (100=total damage; 0=no damage) ECHCG ([3]; Post-Emergence at 15.625 g/ha): 80
